# ± gives the uncertainty stated by the source.
# Experiment: xn = mol fraction of the nth substance listed
smiles,measurement,setting,value
CCC[n+]1ccn(C)c1.COS(=O)(=O)[O-] + O,viscosity,"298.15 K, 101 kPa, x1 = 0.000281",0.799 ± 0.044 mPa·s
same,viscosity,"298.15 K, 101 kPa, x1 = 0.0007725",0.805 ± 0.044 mPa·s
same,viscosity,"298.15 K, 101 kPa, x1 = 0.0009344",0.814 ± 0.044 mPa·s
same,viscosity,"298.15 K, 101 kPa, x1 = 0.001368",0.819 ± 0.044 mPa·s
same,viscosity,"298.15 K, 101 kPa, x1 = 0.001628",0.813 ± 0.044 mPa·s
same,viscosity,"298.15 K, 101 kPa, x1 = 0.002412",0.829 ± 0.044 mPa·s
same,viscosity,"298.15 K, 101 kPa, x1 = 0.004829",0.838 ± 0.044 mPa·s
same,viscosity,"298.15 K, 101 kPa, x1 = 0.007746",0.886 ± 0.045 mPa·s
same,viscosity,"298.15 K, 101 kPa, x1 = 0.009565",0.931 ± 0.045 mPa·s
same,viscosity,"298.15 K, 101 kPa, x1 = 0.01237",0.999 ± 0.046 mPa·s
same,viscosity,"298.15 K, 101 kPa, x1 = 0.01639",1.113 ± 0.047 mPa·s
same,viscosity,"298.15 K, 101 kPa, x1 = 0.01912",1.182 ± 0.048 mPa·s
same,viscosity,"298.15 K, 101 kPa, x2 = 0.9709",1.48 ± 0.051 mPa·s
same,viscosity,"298.15 K, 101 kPa, x2 = 0.9746",1.387 ± 0.05 mPa·s
same,viscosity,"308.15 K, 101 kPa, x1 = 0.000281",0.699 ± 0.043 mPa·s
same,viscosity,"308.15 K, 101 kPa, x1 = 0.0007725",0.709 ± 0.043 mPa·s
same,viscosity,"308.15 K, 101 kPa, x1 = 0.0009344",0.717 ± 0.044 mPa·s
same,viscosity,"308.15 K, 101 kPa, x1 = 0.001368",0.727 ± 0.044 mPa·s
same,viscosity,"308.15 K, 101 kPa, x1 = 0.001628",0.735 ± 0.044 mPa·s
same,viscosity,"308.15 K, 101 kPa, x1 = 0.002412",0.758 ± 0.044 mPa·s
same,viscosity,"308.15 K, 101 kPa, x1 = 0.004829",0.796 ± 0.044 mPa·s
same,viscosity,"308.15 K, 101 kPa, x1 = 0.007746",0.847 ± 0.044 mPa·s
same,viscosity,"308.15 K, 101 kPa, x1 = 0.009565",0.888 ± 0.045 mPa·s
same,viscosity,"308.15 K, 101 kPa, x1 = 0.01237",0.93 ± 0.045 mPa·s
same,viscosity,"308.15 K, 101 kPa, x1 = 0.01639",1.021 ± 0.046 mPa·s
same,viscosity,"308.15 K, 101 kPa, x1 = 0.01912",1.072 ± 0.047 mPa·s
same,viscosity,"308.15 K, 101 kPa, x2 = 0.9709",1.268 ± 0.049 mPa·s
same,viscosity,"308.15 K, 101 kPa, x2 = 0.9746",1.205 ± 0.048 mPa·s
same,viscosity,"318.15 K, 101 kPa, x1 = 0.000281",0.62 ± 0.043 mPa·s
same,viscosity,"318.15 K, 101 kPa, x1 = 0.0007725",0.638 ± 0.043 mPa·s
same,viscosity,"318.15 K, 101 kPa, x1 = 0.0009344",0.642 ± 0.043 mPa·s
same,viscosity,"318.15 K, 101 kPa, x1 = 0.001368",0.647 ± 0.043 mPa·s
same,viscosity,"318.15 K, 101 kPa, x1 = 0.001628",0.66 ± 0.043 mPa·s
same,viscosity,"318.15 K, 101 kPa, x1 = 0.002412",0.658 ± 0.043 mPa·s
same,viscosity,"318.15 K, 101 kPa, x1 = 0.004829",0.702 ± 0.043 mPa·s
same,viscosity,"318.15 K, 101 kPa, x1 = 0.007746",0.757 ± 0.044 mPa·s
same,viscosity,"318.15 K, 101 kPa, x1 = 0.009565",0.81 ± 0.044 mPa·s
same,viscosity,"318.15 K, 101 kPa, x1 = 0.01237",0.865 ± 0.045 mPa·s
same,viscosity,"318.15 K, 101 kPa, x1 = 0.01639",0.963 ± 0.046 mPa·s
same,viscosity,"318.15 K, 101 kPa, x1 = 0.01912",1.017 ± 0.046 mPa·s
same,viscosity,"318.15 K, 101 kPa, x2 = 0.9709",1.247 ± 0.049 mPa·s
same,viscosity,"318.15 K, 101 kPa, x2 = 0.9746",1.167 ± 0.048 mPa·s
same,viscosity,"328.15 K, 101 kPa, x1 = 0.000281",0.566 ± 0.042 mPa·s
same,viscosity,"328.15 K, 101 kPa, x1 = 0.0007725",0.57 ± 0.042 mPa·s
same,viscosity,"328.15 K, 101 kPa, x1 = 0.0009344",0.575 ± 0.042 mPa·s
same,viscosity,"328.15 K, 101 kPa, x1 = 0.001368",0.58 ± 0.043 mPa·s
same,viscosity,"328.15 K, 101 kPa, x1 = 0.001628",0.588 ± 0.043 mPa·s
same,viscosity,"328.15 K, 101 kPa, x1 = 0.002412",0.602 ± 0.043 mPa·s
same,viscosity,"328.15 K, 101 kPa, x1 = 0.004829",0.647 ± 0.043 mPa·s
same,viscosity,"328.15 K, 101 kPa, x1 = 0.007746",0.701 ± 0.043 mPa·s
same,viscosity,"328.15 K, 101 kPa, x1 = 0.009565",0.736 ± 0.044 mPa·s
same,viscosity,"328.15 K, 101 kPa, x1 = 0.01237",0.79 ± 0.044 mPa·s
same,viscosity,"328.15 K, 101 kPa, x1 = 0.01639",0.878 ± 0.045 mPa·s
same,viscosity,"328.15 K, 101 kPa, x1 = 0.01912",0.953 ± 0.046 mPa·s
same,viscosity,"328.15 K, 101 kPa, x2 = 0.9709",1.122 ± 0.047 mPa·s
same,viscosity,"328.15 K, 101 kPa, x2 = 0.9746",1.054 ± 0.046 mPa·s
CC[n+]1ccn(C)c1.COP(=O)([O-])OC + O,viscosity,"293.15 K, 101 kPa, x2 = 0.198",292 ± 18 mPa·s
same,viscosity,"298.15 K, 101 kPa, x2 = 0.198",212 ± 11 mPa·s
same,viscosity,"303.15 K, 101 kPa, x2 = 0.198",157.4 ± 6.6 mPa·s
same,viscosity,"318.15 K, 101 kPa, x2 = 0.198",73.7 ± 1.2 mPa·s
same,viscosity,"318.15 K, 101 kPa, x2 = 0.399",52.73 ± 0.49 mPa·s
same,viscosity,"318.15 K, 101 kPa, x2 = 0.799",11.57 ± 0.13 mPa·s
same,viscosity,"328.15 K, 101 kPa, x2 = 0.399",35.56 ± 0.41 mPa·s
same,viscosity,"333.15 K, 101 kPa, x2 = 0.198",40.33 ± 0.5 mPa·s
CC[n+]1ccn(C)c1.F[B-](F)(F)F + O,electrical conductivity,"298 K, 101 kPa, x2 = 0.78",8.27 ± 0.66 S/m
same,electrical conductivity,"298 K, 101 kPa, x2 = 0.84",8.63 ± 0.69 S/m
CC[n+]1ccn(C)c1.O=S(=O)([N-]S(=O)(=O)C(F)(F)F)C(F)(F)F + O,viscosity,"297.55 K, 101 kPa, x1 = 0.889",26 ± 0.7 mPa·s
same,electrical conductivity,"297.85 K, 101 kPa, x2 = 0.205",1.22 ± 0.03 S/m
same,viscosity,"298 K, 101 kPa, x2 = 0.02",32.3 ± 3.3 mPa·s
same,viscosity,"298 K, 101 kPa, x2 = 0.0629",30.8 ± 3.1 mPa·s
same,viscosity,"298 K, 101 kPa, x2 = 0.199",25.4 ± 2.6 mPa·s
same,viscosity,"298 K, 101 kPa, x2 = 0.227",25.2 ± 2.6 mPa·s
same,electrical conductivity,"298.15 K, 101 kPa, x2 = 0.205",1.3 ± 0.03 S/m
same,electrical conductivity,"299.15 K, 101 kPa, x2 = 0.205",1.32 ± 0.03 S/m
same,electrical conductivity,"300.35 K, 101 kPa, x2 = 0.205",1.38 ± 0.03 S/m
same,electrical conductivity,"302.15 K, 101 kPa, x2 = 0.205",1.45 ± 0.03 S/m
same,electrical conductivity,"302.85 K, 101 kPa, x2 = 0.205",1.51 ± 0.03 S/m
same,viscosity,"303.15 K, 100 kPa, x2 = 0.298",16.23 ± 0.14 mPa·s
same,electrical conductivity,"303.95 K, 101 kPa, x2 = 0.205",1.61 ± 0.03 S/m
same,electrical conductivity,"304.95 K, 101 kPa, x2 = 0.205",1.66 ± 0.03 S/m
same,viscosity,"313.15 K, 100 kPa, x2 = 0.298",12.29 ± 0.11 mPa·s
same,viscosity,"333.15 K, 100 kPa, x2 = 0.298",7.749 ± 0.067 mPa·s
C[N+](C)(C)Cc1ccccc1.[Cl-] + O,electrical conductivity,"298.15 K, 101.3 kPa, frequency 0.001 MHz, x1 = 1.802e-05",0.0137 ± 0.0052 S/m
same,electrical conductivity,"298.15 K, 101.3 kPa, frequency 0.001 MHz, x1 = 5.406e-05",0.0295 ± 0.0056 S/m
same,electrical conductivity,"298.15 K, 101.3 kPa, frequency 0.001 MHz, x1 = 9.009e-05",0.0457 ± 0.0069 S/m
same,viscosity,"298.15 K, 101.3 kPa, x1 = 1.802e-05",0.88 ± 0.045 mPa·s
same,viscosity,"298.15 K, 101.3 kPa, x1 = 9.009e-05",0.914 ± 0.045 mPa·s
same,viscosity,"303.15 K, 100 kPa, x1 = 0.0004874",0.813 ± 0.017 mPa·s
same,electrical conductivity,"308.15 K, 101.3 kPa, frequency 0.001 MHz, x1 = 1.802e-05",0.0183 ± 0.0062 S/m
same,electrical conductivity,"308.15 K, 101.3 kPa, frequency 0.001 MHz, x1 = 5.406e-05",0.0398 ± 0.0071 S/m
same,electrical conductivity,"308.15 K, 101.3 kPa, frequency 0.001 MHz, x1 = 9.009e-05",0.0565 ± 0.0079 S/m
same,viscosity,"308.15 K, 101.3 kPa, x1 = 5.406e-05",0.747 ± 0.044 mPa·s
same,viscosity,"308.15 K, 101.3 kPa, x1 = 9.009e-05",0.766 ± 0.045 mPa·s
same,electrical conductivity,"318.15 K, 101.3 kPa, frequency 0.001 MHz, x1 = 1.802e-05",0.0233 ± 0.0077 S/m
same,electrical conductivity,"318.15 K, 101.3 kPa, frequency 0.001 MHz, x1 = 5.406e-05",0.0456 ± 0.0084 S/m
same,electrical conductivity,"318.15 K, 101.3 kPa, frequency 0.001 MHz, x1 = 9.009e-05",0.0643 ± 0.0094 S/m
same,viscosity,"318.15 K, 101.3 kPa, x1 = 1.802e-05",0.611 ± 0.044 mPa·s
same,viscosity,"318.15 K, 101.3 kPa, x1 = 5.406e-05",0.627 ± 0.044 mPa·s
same,viscosity,"318.15 K, 101.3 kPa, x1 = 9.009e-05",0.646 ± 0.044 mPa·s
O=C[O-].OCC[NH2+]CCO + O,viscosity,"293.15 K, 100 kPa, x1 = 0.075",3.25 ± 0.68 mPa·s
same,viscosity,"293.15 K, 100 kPa, x1 = 0.3185",36.2 ± 7.3 mPa·s
same,viscosity,"293.15 K, 100 kPa, x1 = 1",471 ± 96 mPa·s
same,viscosity,"303.15 K, 100 kPa, x1 = 0.0292",1.34 ± 0.28 mPa·s
same,viscosity,"303.15 K, 100 kPa, x1 = 0.7987",172 ± 35 mPa·s
same,viscosity,"313.15 K, 100 kPa, x1 = 0.075",1.99 ± 0.41 mPa·s
same,viscosity,"333.15 K, 100 kPa, x1 = 0.3185",8.4 ± 1.7 mPa·s
same,viscosity,"333.15 K, 100 kPa, x1 = 0.7987",40.4 ± 8.1 mPa·s
same,viscosity,"343.15 K, 100 kPa, x1 = 0.5932",15.3 ± 3.1 mPa·s
same,viscosity,"343.15 K, 100 kPa, x1 = 1",35.9 ± 7.2 mPa·s

# — the CheMixHub ionic liquid set
